Test results taken from article PMC8185074, “Anchor extension: a structure-guided approach to design cyclic peptides targeting enzyme active sites” (Nature Communications, 2021).
Peptide text beside a SMILES is read from it.

What was measured:
Type in all cases: biochemical
HDAC8 = molecular target: T1, HDAC8 (Homo sapiens, UniProt Q9BY41); test: HDAC8 inhibition, full IC50 measurement (Reaction Biology; fluorogenic p53 peptide RHKK(Ac)AMC); settings: t1/t2 replicates
T1 construct: purchased Reaction Biology Corporation (assay run by the CRO)
T1 sequence (Q9BY41 1-377): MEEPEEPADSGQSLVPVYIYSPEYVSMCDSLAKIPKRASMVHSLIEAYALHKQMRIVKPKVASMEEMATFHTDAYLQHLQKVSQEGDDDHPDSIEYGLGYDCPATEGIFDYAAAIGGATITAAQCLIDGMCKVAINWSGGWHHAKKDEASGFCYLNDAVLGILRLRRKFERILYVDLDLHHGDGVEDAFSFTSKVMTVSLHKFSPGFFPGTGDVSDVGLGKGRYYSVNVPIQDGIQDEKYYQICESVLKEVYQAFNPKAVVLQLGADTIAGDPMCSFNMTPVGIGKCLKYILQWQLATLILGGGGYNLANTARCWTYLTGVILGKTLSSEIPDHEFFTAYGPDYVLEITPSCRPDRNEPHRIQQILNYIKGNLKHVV
Outline: (§1)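 Inhibitory peptides were acoustically dispensed with enzyme, then substrate added; 1 h at 30 °C. Developer stopped reaction; plateau endpoint fluorescence (360/460 nm) gave IC50.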

HDAC2 = molecular target: T2, HDAC2 (Homo sapiens, UniProt Q92769); test: HDAC2 inhibition, full IC50 measurement (Reaction Biology; fluorogenic p53 peptide RHKK(Ac)AMC)
T2 construct: purchased Reaction Biology Corporation (assay run by the CRO)
T2 sequence (Q92769 whole entry): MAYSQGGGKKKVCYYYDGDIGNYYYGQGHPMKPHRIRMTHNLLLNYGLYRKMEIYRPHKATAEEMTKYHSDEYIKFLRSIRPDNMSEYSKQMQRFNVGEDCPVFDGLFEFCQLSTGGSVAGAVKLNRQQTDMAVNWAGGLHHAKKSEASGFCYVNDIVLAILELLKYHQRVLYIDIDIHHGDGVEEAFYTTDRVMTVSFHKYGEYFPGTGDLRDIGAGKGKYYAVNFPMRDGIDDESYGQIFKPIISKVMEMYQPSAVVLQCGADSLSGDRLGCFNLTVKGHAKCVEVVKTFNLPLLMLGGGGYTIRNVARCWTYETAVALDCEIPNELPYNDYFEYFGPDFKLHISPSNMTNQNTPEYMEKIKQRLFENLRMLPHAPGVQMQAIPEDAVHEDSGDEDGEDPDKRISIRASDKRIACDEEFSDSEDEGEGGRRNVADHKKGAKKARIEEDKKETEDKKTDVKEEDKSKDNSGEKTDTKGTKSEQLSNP
Outline: as §1

HDAC1 = molecular target: T3, HDAC1 (Homo sapiens, UniProt Q13547); test: HDAC1 inhibition, full IC50 measurement (Reaction Biology; fluorogenic p53 peptide RHKK(Ac)AMC); settings: t1/t2 replicates
T3 construct: purchased Reaction Biology Corporation (assay run by the CRO)
T3 sequence (Q13547 whole entry): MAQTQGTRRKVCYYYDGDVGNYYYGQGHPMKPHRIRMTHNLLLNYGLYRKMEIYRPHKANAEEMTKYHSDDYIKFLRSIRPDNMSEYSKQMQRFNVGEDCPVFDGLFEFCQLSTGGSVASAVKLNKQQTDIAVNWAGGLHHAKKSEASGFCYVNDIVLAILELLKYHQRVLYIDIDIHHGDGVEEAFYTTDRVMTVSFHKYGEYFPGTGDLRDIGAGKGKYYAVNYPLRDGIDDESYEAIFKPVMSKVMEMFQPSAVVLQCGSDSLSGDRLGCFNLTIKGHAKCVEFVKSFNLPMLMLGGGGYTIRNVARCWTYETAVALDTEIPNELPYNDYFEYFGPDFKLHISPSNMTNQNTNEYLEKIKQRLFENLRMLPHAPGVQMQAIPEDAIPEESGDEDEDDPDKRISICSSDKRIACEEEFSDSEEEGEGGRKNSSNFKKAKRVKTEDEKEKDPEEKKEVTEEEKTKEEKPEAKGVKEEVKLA
Outline: as §1

[1] = peptide conc. 1.00E-05 M, listed as des2.1.1_t1
[2] = peptide conc. 1.00E-05 M, listed as des2.1.1_t2
[3] = peptide conc. 1.11E-06 M, listed as des2.1.1_t1
[4] = peptide conc. 1.11E-06 M, listed as des2.1.1_t2
[5] = peptide conc. 1.23E-07 M, listed as des2.1.1_t1
[6] = peptide conc. 1.23E-07 M, listed as des2.1.1_t2
[7] = peptide conc. 1.37E-08 M, listed as des2.1.1_t1
[8] = peptide conc. 1.37E-08 M, listed as des2.1.1_t2
[9] = peptide conc. 1.52E-09 M, listed as des2.1.1_t1
[10] = peptide conc. 1.52E-09 M, listed as des2.1.1_t2
[11] = peptide conc. 3.33E-06 M, listed as des2.1.1_t1
[12] = peptide conc. 3.33E-06 M, listed as des2.1.1_t2
[13] = peptide conc. 3.70E-07 M, listed as des2.1.1_t1
[14] = peptide conc. 3.70E-07 M, listed as des2.1.1_t2
[15] = peptide conc. 4.12E-08 M, listed as des2.1.1_t1
[16] = peptide conc. 4.12E-08 M, listed as des2.1.1_t2
[17] = peptide conc. 4.57E-09 M, listed as des2.1.1_t1
[18] = peptide conc. 4.57E-09 M, listed as des2.1.1_t2
[19] = peptide conc. 5.08E-10 M, listed as des2.1.1_t1
[20] = peptide conc. 5.08E-10 M, listed as des2.1.1_t2

## CSCC[C@H]1NC(=O)[C@@H](CO)NC(=O)[C@H](CC(N)=O)NC(=O)[C@H](CC(=O)O)NC(=O)[C@@H]([C@H](C)O)NC(=O)[C@H](Cc2c[nH]c3ccccc23)NC(=O)[C@H](CCCCCS)NC(=O)[C@H](CCCCN)NC(=O)[C@@H](CC(=O)O)NC1=O [des2.1.1, SHA-Trp-dThr-Asp-Asn-dSer-dMet-dAsp-Lys] (HELM PEPTIDE1{D.N.[dS].[dM].[dD].K.[O=C([C@H](CCCCCS)N[*:1])[*:2]].W.[dT]}$PEPTIDE1,PEPTIDE1,1:R1-9:R2$$$V2.0)
HDAC8; [1]
  HDAC8 activity raw data (signal): 964380
HDAC8; [2]
  HDAC8 activity raw data (signal): 738285
HDAC8; [3]
  HDAC8 activity raw data (signal): 17568030
HDAC8; [4]
  HDAC8 activity raw data (signal): 18194235
HDAC8; [5]
  HDAC8 activity raw data (signal): 56084359
HDAC8; [6]
  HDAC8 activity raw data (signal): 53955732
HDAC8; [7]
  HDAC8 activity raw data (signal): 68600267
HDAC8; [8]
  HDAC8 activity raw data (signal): 68709597
HDAC8; [9]
  HDAC8 activity raw data (signal): 73629892
HDAC8; [10]
  HDAC8 activity raw data (signal): 68940487
HDAC8; [11]
  HDAC8 activity raw data (signal): 6524465
HDAC8; [12]
  HDAC8 activity raw data (signal): 5933628
HDAC8; [13]
  HDAC8 activity raw data (signal): 36548840
HDAC8; [14]
  HDAC8 activity raw data (signal): 38514186
HDAC8; [15]
  HDAC8 activity raw data (signal): 62692187
HDAC8; [16]
  HDAC8 activity raw data (signal): 60959948
HDAC8; [17]
  HDAC8 activity raw data (signal): 71596500
HDAC8; [18]
  HDAC8 activity raw data (signal): 73045422
HDAC8; [19]
  HDAC8 activity raw data (signal): 76849547
HDAC8; [20]
  HDAC8 activity raw data (signal): 76232042
HDAC2; Conc. 1.00E-05 M, t1
  HDAC2 activity raw data (signal): -452
HDAC2; Conc. 1.00E-05 M, t2
  HDAC2 activity raw data (signal): -1036
HDAC2; Conc. 1.11E-06 M, t1
  HDAC2 activity raw data (signal): 33890
HDAC2; Conc. 1.11E-06 M, t2
  HDAC2 activity raw data (signal): 38279
HDAC2; Conc. 1.23E-07 M, t1
  HDAC2 activity raw data (signal): 186095
HDAC2; Conc. 1.23E-07 M, t2
  HDAC2 activity raw data (signal): 182790
HDAC2; Conc. 1.37E-08 M, t1
  HDAC2 activity raw data (signal): 599694
HDAC2; Conc. 1.37E-08 M, t2
  HDAC2 activity raw data (signal): 552663
HDAC2; Conc. 1.52E-09 M, t1
  HDAC2 activity raw data (signal): 969892
HDAC2; Conc. 1.52E-09 M, t2
  HDAC2 activity raw data (signal): 886346
HDAC2; Conc. 3.33E-06 M, t1
  HDAC2 activity raw data (signal): 19780
HDAC2; Conc. 3.33E-06 M, t2
  HDAC2 activity raw data (signal): 13124
HDAC2; Conc. 3.70E-07 M, t1
  HDAC2 activity raw data (signal): 88233
HDAC2; Conc. 3.70E-07 M, t2
  HDAC2 activity raw data (signal): 84596
HDAC2; Conc. 4.12E-08 M, t1
  HDAC2 activity raw data (signal): 374430
HDAC2; Conc. 4.12E-08 M, t2
  HDAC2 activity raw data (signal): 356371
HDAC2; Conc. 4.57E-09 M, t1
  HDAC2 activity raw data (signal): 827090
HDAC2; Conc. 4.57E-09 M, t2
  HDAC2 activity raw data (signal): 782443
HDAC2; Conc. 5.08E-10 M, t1
  HDAC2 activity raw data (signal): 1119506
HDAC2; Conc. 5.08E-10 M, t2
  HDAC2 activity raw data (signal): 1036443
HDAC2; figure legends, Supp. Table 1, read-out: HDAC2 IC50
  IC50: 16.3 nM
HDAC1; [1]
  HDAC1 activity raw data (signal): -3296
HDAC1; [2]
  HDAC1 activity raw data (signal): -5
HDAC1; [3]
  HDAC1 activity raw data (signal): 15027
HDAC1; [4]
  HDAC1 activity raw data (signal): 19517
HDAC1; [5]
  HDAC1 activity raw data (signal): 121250
HDAC1; [6]
  HDAC1 activity raw data (signal): 94143
HDAC1; [7]
  HDAC1 activity raw data (signal): 426941
HDAC1; [8]
  HDAC1 activity raw data (signal): 417070
HDAC1; [9]
  HDAC1 activity raw data (signal): 888087
HDAC1; [10]
  HDAC1 activity raw data (signal): 854689
HDAC1; [11]
  HDAC1 activity raw data (signal): 5417
HDAC1; [12]
  HDAC1 activity raw data (signal): 8523
HDAC1; [13]
  HDAC1 activity raw data (signal): 47109
HDAC1; [14]
  HDAC1 activity raw data (signal): 41206
HDAC1; [15]
  HDAC1 activity raw data (signal): 257706
HDAC1; [16]
  HDAC1 activity raw data (signal): 221039
HDAC1; [17]
  HDAC1 activity raw data (signal): 716596
HDAC1; [18]
  HDAC1 activity raw data (signal): 664253
HDAC1; [19]
  HDAC1 activity raw data (signal): 1042274
HDAC1; [20]
  HDAC1 activity raw data (signal): 995234
